Where two headings read alike, the source gives them in different places.
Key:
[1] = Storage stability test (40° C., 75% RH, open or closed, opaque containers, HPLC); conditions: for amount of remaining unaltered crystals, INITIAL: 40° C./75% RH storage test
Excerpt: HPLC conditions: a column, which is Inertsil ODS-3V manufactured by GL Sciences Inc., and has an inner diameter of 4.6 mm, a length of 15 cm, and a particle diameter of […] was used. […] The measurement wavelength used was 294 nm.

[2] = Test of solubility in water
[3] = Test of storage stability against light (D65 fluorescent lamp irradiation)

SMILES | melting point | amount of remaining unaltered crystals, INITIAL [1] | change in the amount of unaltered crystals at 4 weeks (in words) ([1]; 40° C./75% RH) | amount of remaining unaltered crystals, 4 WEEKS CLOSED CONDITION ([1]; 40° C./75% RH) | amount of remaining unaltered crystals, 4 WEEKS OPEN CONDITION ([1]; 40° C./75% RH) | SOLUBILITY [2] | amount of remaining unaltered crystals, total irradiation amount 110,000 lx·hrs [3] | change in the amount of unaltered crystals at 110,000 lx·hrs (in words) [3] | amount of remaining unaltered crystals, total irradiation amount 220,000 lx·hrs [3] | amount of remaining unaltered crystals, total irradiation amount 530,000 lx·hrs [3] | amount of remaining unaltered crystals, total irradiation amount 860,000 lx·hrs [3] | amount of remaining unaltered crystals, total irradiation amount 1,280,000 lx·hrs ([3]; 1,280,000 lx·hrs) | change in the amount of crystals at 1,280,000 lx·hrs (in words) ([3]; 1,280,000 lx·hrs) | amount of remaining unaltered crystals, INITIAL [3] | change in the amount of unaltered crystals at 2 weeks (in words) ([1]; 40° C./75% RH, 2 weeks) | amount of remaining unaltered crystals, 2 WEEKS CLOSED CONDITION ([1]; 40° C./75% RH, 2 weeks) | amount of remaining unaltered crystals, 2 WEEKS OPEN CONDITION ([1]; 40° C./75% RH, 2 weeks) | SOLUBILITY ([2]; Methanesulfonate Salt) | SOLUBILITY ([2]; water, SOLUBILITY) | reduction in the amount of crystals at 1,280,000 lx·hrs ([3]; 1,280,000 lx·hrs)
COc1c(N2C[C@H](CNC3CC3)[C@H](F)C2)c(F)cc2c(=O)c(C(=O)O)cn(CCF)c12.CS(=O)(=O)O (hydrate or solvate) [CRYSTALS OF METHANESULFONATE SALT, 7-{(3S,4S)-3-[(cyclopropylamino)methyl]-4-fluoropyrrolidine-1-yl}-6-fluoro-1-(2-fluoroethyl)-8-methoxy-4-oxo-1,4-dihydroquinoline-3-carboxylic Acid Methanesulfonate Salt] | 207 to 210 °C (dec.) |  |  |  |  |  |  |  |  |  |  |  |  |  |  |  |  |  |  | 
COc1c(N2C[C@H](CNC3CC3)[C@H](F)C2)c(F)cc2c(=O)c(C(=O)O)cn(CCF)c12.Cl [CRYSTALS A, 7-{(3S,4S)-3-[(cyclopropylamino)methyl]-4-fluoropyrrolidine-1-yl}-6-fluoro-1-(2-fluoroethyl)-8-methoxy-4-oxo-1,4-dihydroquinoline-3-carboxylic Acid Hydrochloride Salt (Crystals A)] |  | 99.52 | no change | 99.52 | 99.51 | >10 mg/mL | 97.74 | almost no change | 97.43 | 97.32 | 96.32 | 91.33 | found to decrease | 98.68 |  |  |  |  |  | 
COc1c(N2C[C@H](CNC3CC3)[C@H](F)C2)c(F)cc2c(=O)c(C(=O)O)cn(CCF)c12.Cl.O [CRYSTALS B, 7-{(3S,4S)-3-[(cyclopropylamino)methyl]-4-fluoropyrrolidine-1-yl}-6-fluoro-1-(2-fluoroethyl)-8-methoxy-4-oxo-1,4-dihydroquinoline-3-carboxylic Acid Hydrochloride Salt Hydrate (Crystals B)] |  | 99.59 | no change | 99.65 | 99.64 | >10 mg/mL |  |  |  |  |  |  |  |  |  |  |  |  |  | 
COc1c(N2C[C@H](CNC3CC3)[C@H](F)C2)c(F)cc2c(=O)c(C(=O)O)cn(CCF)c12.Cl.O [CRYSTALS C, 7-{(3S,4S)-3-[(cyclopropylamino)methyl]-4-fluoropyrrolidine-1-yl}-6-fluoro-1-(2-fluoroethyl)-8-methoxy-4-oxo-1,4-dihydroquinoline-3-carboxylic Acid Hydrochloride Salt Hydrate (Crystals C)] |  | 99.75 |  |  |  |  |  |  |  |  |  |  |  |  | found to decrease | 99.37 | 99.47 |  |  | 
COc1c(N2C[C@H](CNC3CC3)[C@H](F)C2)c(F)cc2c(=O)c(C(=O)O)cn(CCF)c12.CS(=O)(=O)O [CRYSTALS OF METHANESULFONATE SALT, 7-{(3S,4S)-3-[(cyclopropylamino)methyl]-4-fluoropyrrolidine-1-yl}-6-fluoro-1-(2-fluoroethyl)-8-methoxy-4-oxo-1,4-dihydroquinoline-3-carboxylic Acid Methanesulfonate Salt] |  | 95.18 | no change | 96.09 | 95.89 |  | 98.01 | almost no change | 97.5 | 96.91 | 95.37 | 95.11 | found to decrease | 98.83 |  |  |  | >10 mg/mL | ≥ 10 mg/mL | 
COc1c(N2C[C@H](CNC3CC3)[C@H](F)C2)c(F)cc2c(=O)c(C(=O)O)cn(CCF)c12 [FREE CRYSTALS, 7-{(3S,4S)-3-[(cyclopropylamino)methyl]-4-fluoropyrrolidine-1-yl}-6-fluoro-1-(2-fluoroethyl)-8-methoxy-4-oxo-1,4-dihydroquinoline-3-carboxylic acid] |  | 95.18 |  | 95.00 | 95.35 | <1 mg/mL | 77.71 | significantly decrease | 75.31 | 66.34 | 49.82 | 44.85 |  | 96.12 |  | 95.13 | 95.27 |  | ≤ 1 mg/mL | ≥ 50%

Reference: patent USRE47785E1, “7-{(3S,4S)-3-[(cyclopropylamino)methyl]-4-fluoropyrrolidine-1-yl}-6-fluoro-1-(2-fluoroethyl)-8-methoxy-4-oxo-1,4-dihydroquinoline-3-carboxylic acid crystal” (KYORIN PHARMACEUTICAL CO., LTD., priority 2011, dated 2019)
